Laboratory results taken from patent US10364222B2, “Cyclic amine derivative and medical use thereof” (Toray Industries, Inc., priority 2016, dated 2019).

Tests used:
[1] = tested on: DNFB-induced mouse allergic dermatitis model; assay: DNFB-induced mouse allergic dermatitis model; format: in vivo; conditions: BALB/c mice; 10 mg/kg orally one hour before induction; 24th hour after induction; vs vehicle, Student's t-test P<0.05
Procedure: Using increase in the ear swelling rate as an index of exacerbation of symptoms, the effect of the cyclic amine derivative (I) or a pharmacologically acceptable salt thereof in a DNFB-induced mouse allergic dermatitis model was evaluated. The DNFB-induced mouse allergic dermatitis model was prepared by a partially modified method by Curzytek et al. (Pharmacological Reports, 2013, Vol. 65, p. 123′7-1246).
BALB/c mice (female, 6 weeks old) (Charles River Laboratories Japan, Inc.) were used at 7 weeks old after preliminary breeding. To the back of the mice, 25 μL of a 0.5 v/v % DNFB solution dissolved in acetone:olive oil (4:1) was applied. The next day, the same operation was repeated to sensitize the mice. Four days after the sensitization, 10 μL each of a 0.2 v/v % DNFB solution dissolved in acetone:olive oil (4:1) was applied to both sides of the right auricle of the sensitized mice to induce inflammation.
One hour before induction, the compound of Example 20, the compound of Example 29, or the compound of Example 57 was administered at a dose of 10 mg/kg to the mice. The compound of Example 20, the compound of Example 29, and the compound of Example 57 were suspended in a 0.5 w/v % methylcellulose solution and orally administered. The group in which the compound of Example 20 was administered to mice was defined as the Example-20 compound administration group, the group in which the compound of Example 29 was administered was defined as the Example-29 compound administration group, and the group in which the compound of Example 57 was administered was defined as the Example-57 compound administration group. […]
The right ear thickness before application of the DNFB solution (before induction) on the induction day and the right ear thickness at the 24th hour after induction were measured with a digital micrometer (Mitutoyo Corporation). The swelling rate of the auricle was calculated by Formula 3 and used as an index of the drug efficacy evaluation. […]

[2] = tested on: oxazolone-induced mouse atopic dermatitis model; assay: Oxazolone-induced mouse atopic dermatitis model; format: in vivo; conditions: BALB/c mice; 10 mg/kg orally once daily for 15 days from the sensitization day; vs vehicle, Student's t-test P<0.05
Procedure: Using increase in the ear thickness as an index of exacerbation of symptoms, the effect of the cyclic amine derivative (I) or a pharmacologically acceptable salt thereof in an oxazolone-induced mouse atopic dermatitis model was evaluated. The oxazolone-induced mouse atopic dermatitis model was prepared by a partially modified method by Nakajima et al. (Journal of Investigative Dermatology, 2014, Vol. 134, p. 2122-2130).
BALB/c mice (female, 7 weeks old) (Charles River Laboratories Japan, Inc.) were used at 8 or 9 weeks old after preliminary breeding. To the back of the mice, 25 μL of a 3 w/v % oxazolone solution dissolved in ethanol was applied to sensitize the mice. Every other day from 5 days to 13 days after the sensitization, 10 μL each of a 0.6 w/v % oxazolone solution dissolved in ethanol was applied to both sides of the right auricle of the sensitized mice to induce inflammation.
The test compound at a dose of 10 mg/kg was administered to the mice once daily for 15 days from the sensitization day to 14 days after sensitization. As the test compound, the compound of Example 20, the compound of Example 29, and the compound of Example 57 were used. The compound of Example 20, the compound of Example 29, and the compound of Example 57 were suspended in a 0.5 w/v % methylcellulose solution and orally administered. The group in which the compound of Example 20 was administered to mice was defined as the Example-20 compound administration group, the group in which the compound of Example 29 was administered was defined as the Example-29 compound administration group, and the group in which the compound of Example 57 was administered was defined as the Example-57 compound administration group. In the vehicle administration group, a vehicle of each test compound (0.5 w/v % methylcellulose solution) was similarly administered.
The right ear thickness before application of the oxazolone solution (before sensitization) on the sensitization day and the right ear thickness on the next day of final induction were measured with a digital micrometer (Mitutoyo Corporation). […]

SMILES | ear swelling rate (%) [1] | change in the ear thickness (right ear, next day of final induction − before sensitization) [2]
CN(CC(=O)N1CCCC[C@@H]1C(=O)Nc1ccc(-c2ccccc2OC(F)(F)F)c(Cl)c1)S(C)(=O)=O [Example 29, (R)-N-(2-chloro-2′-(trifluoromethoxy)-[1,1′-biphenyl]-4-yl)-1-(2-(N-methylmethylsulfonamide)acetyl)piperidine-2-carboxamide] | statistically significantly suppressed | statistically significantly suppressed
O=C(Nc1ccc(-c2ccccc2OC(F)(F)F)c(Cl)c1)[C@H]1CCCCN1C(=O)Cn1cnnn1 [Example 57, (R)-1-(2-(1H-tetrazol-1-yl)acetyl)-N-(2-chloro-2′-(trifluoromethoxy)-[1,1′-biphenyl]-4-yl)piperidine-2-carboxamide] | statistically significantly suppressed | statistically significantly suppressed
CC(=O)N1CCCC[C@@H]1C(=O)Nc1ccc(-c2ccccc2OC(F)(F)F)c(Cl)c1 [Example 20, (R)-1-acetyl-N-(2-chloro-2′-(trifluoromethoxy)-[1,1′-biphenyl]-4-yl)piperidine-2-carboxamide] | statistically significantly suppressed | statistically significantly suppressed
